Broadly, the ΔTm is the change in melting temperature against a reference sample.

The source made the active and inactive calls. The calls are words filed in the database; no cut-off is given here.

Eleven compounds from ChEMBL document CHEMBL4346694, “Identification of Three-Way DNA Junction Ligands through Screening of Chemical Libraries and Validation by Complementary in Vitro Assays” (J Med Chem, 2019) can be followed below.

Data set [1] is described as follows: Binding affinity to FAM-TWJ-S1 DNA (unknown origin) assessed as normalized FAM intensity at 1 uM measured at 5 mins interval for 1 hr by fluorescence assay relative to control.
Data set [2] can be described thus: Binding affinity to FAM-TWJ-TAMRA DNA (unknown origin) assessed as change in melting temperature at 1 uM after 30 mins by FRET assay.
Data set [3] in a line: Binding affinity to TWJ-S1/TWJ-S2/TWJ-S3 DNA (unknown origin) assessed as compound-DNA complex formation at 30 uM measured after 1 hr by sybrgold-staining based PAGE analysis.
Data set [4] can be described thus: Binding affinity to FAM-TWJ-S1/TWJ-S2/TAMRA-TWJ-S3 DNA (unknown origin) assessed as normalized FAM intensity at 1 uM measured at 5 mins interval for 1 hr by fluorescence assay relative to control.
Data set [5] is described as follows: Selectivity ratio of compound effect for binding affinity to FAM-TWJ-TAMRA DNA (unknown origin) assessed as change in melting temperature at 1 uM in absence of 10 uM ds26 DNA to compound effect for binding affinity to FAM-TWJ-TAMRA DNA (unknown origin) assessed as change in melting temperature at 1 uM in presence of 10 uM ds26 DNA.
Data set [6] in a line: Binding affinity to FAM-TWJ-TAMRA DNA (unknown origin) assessed as change in melting temperature at 1 uM after 30 mins in presence of 3 uM ds26 DNA by FRET assay.
Data set [7] in a line: Binding affinity to FAM-TWJ-TAMRA DNA (unknown origin) assessed as change in melting temperature at 1 uM after 30 mins in presence of 10 uM ds26 DNA by FRET assay.
The subject of data set [8] is MCF7. Description: Antiproliferative activity against human MCF7 cells assessed as reduction in cell viability measured after 72 hrs by SRB assay. It counts as functional. The note with it: MCF7, 72 h, read-out: LD50 (the source's name).
Data set [9] is described as follows: Selectivity index, ratio of LD50 for human hTERT-BJ cells to LD50 for human MCF7 cells. It counts as toxicity. The note with it: hTERT-BJ cells versus MCF7 cells, read-out: Selectivity Index.
The nature of data set [10]: Binding affinity to ds17 DNA (unknown origin) assessed as equilibrium binding constant at 1:2 DNA to compound ratio after 1 hr by ESI-MS analysis.
Data set [11] has as its system MCF7. Description: Induction of DNA damage in human MCF7 cells assessed as gammaH2AX accumulation at 10 times antiproliferative LD50 measured after 72 hrs by DAPI staining-based confocal laser scanning microscopic analysis. It counts as functional, cell-based.
The nature of data set [12]: Selectivity index, ratio of LD50 for human hTERT-BJ cells to LD50 for human MDA-MB-231 cells. The data set is classed as toxicity. The following applies: hTERT-BJ cells versus MDA-MB-231 cells, read-out: Selectivity Index.
Data set [13] in a line: Binding affinity to TWJ DNA (unknown origin) assessed as equilibrium binding constant at 1:2 DNA to compound ratio after 1 hr by ESI-MS analysis.
Data set [14] concerns MDA-MB-231. Description: Antiproliferative activity against human MDA-MB-231 cells assessed as reduction in cell viability measured after 72 hrs by SRB assay. The data set is classed as functional. The note with it: MDA-MB-231, 72 h, read-out: LD50 (the source's name). Background: Sulforhodamine B stains cellular protein and so reports cell mass.
Data set [15] can be described thus: Selectivity ratio of K for TWJ DNA (unknown origin) to K for ds17 DNA (unknown origin).
Data set [16] can be described thus: Binding affinity to TWJ DNA (unknown origin) measured after 24 hrs by equilibrium dialysis method.
The nature of data set [17]: Binding affinity to ds17 DNA measured after 24 hrs by equilibrium dialysis method. In general terms: In equilibrium dialysis free small molecules cross a membrane that holds back macromolecules.
Data set [18] in a line: Cytotoxicity against human hTERT-BJ cells assessed as reduction in cell viability measured after 72 hrs by SRB assay. It counts as cell-based. The note with it: read-out: LD50.
Data set [19] can be described thus: Binding affinity to ds17 DNA (unknown origin) assessed as equilibrium binding constant at 1:3 DNA to compound ratio after 1 hr by ESI-MS analysis.
Data set [20] in a line: Binding affinity to FAM-TWJ-S1/TWJ-S2/TWJ-S3 DNA (unknown origin) assessed as compound-DNA complex formation at 12 uM measured after 1 hr in presence of ds12 DNA by sybrgold-staining based PAGE analysis.
A short description of data set [21]: Selectivity ratio of Kapp for TWJ DNA (unknown origin) to Kapp for ds17 DNA by equilibrium dialysis method (unknown origin).

As for `c1cc2ccc3ccc(-[n+]4csc5ccccc54)c4ccc(c1)c2c34`, the Ratio was 100% in data set [1] and 23% in [4]. Moreover, the ΔTm in data set [2] turned out to be 0 °C. Moreover, the outcome in data set [3] was inactive.

Regarding `NCCCNC[C@]12c3ccccc3[C@](CNCCCN)(c3ccccc31)c1cc3ccccc3cc12`, the Ratio was 40% in [1] and 63% in data set [4]. For the same compound, the ΔTm in [2] was 0.8 °C. Besides, the outcome in data set [3] was inactive.

Take `COCCOCCOCC[n+]1ccc(-c2c3nc(c(-c4cc[n+](CCOCCOCCOC)cc4)c4ccc([nH]4)c(-c4cc[n+](CCOCCOCCOC)cc4)c4nc(c(-c5cc[n+](CCOCCOCCOC)cc5)c5ccc2[nH]5)C=C4)C=C3)cc1`: the Ratio in data set [1] was 27%; in data set [4], 72%. The values for the ΔTm in data set [2], in data set [6] and in data set [7] were 11 °C, 7 °C and 4 °C, respectively. In data set [5], the Selectivity ratio was determined as 36%.

Consider `Cn1c[n+](-c2ccc3ccc4cccc5ccc2c3c45)cn1`, for which the Ratio came to 101% in data set [1] and 22% in data set [4]. The ΔTm in data set [2] was determined as 1.5 °C. For the same compound, in [3], the result was inactive.

Turning to `c1cc2c3nc4c(cccc4cc3c1)CNCCOCCNCc1cccc3cc4cccc(c4nc13)CNCCOCCNC2`, the Ratio in data set [1] is 80%; in data set [4], 35%. Moreover, the values for the ΔTm in [2], in data set [6] and in data set [7] were 11.6 °C, 5.5 °C and 4.6 °C, respectively. The Selectivity ratio in data set [5] amounted to 39%.

`CN(C)CCCNCC12c3ccccc3C(CNCCCN(C)C)(c3ccccc31)c1ccccc12`: the Ratio in [1] was found to be 100%; in [4] it was 27%. For the same compound, in data set [2], the thermal shift (ΔTm) is 0.6 °C. The result in data set [3] was inactive.

For the compound `c1cc2cc(c1)-c1cccc(c1)CNCCN1CCNCc3cccc(c3)-c3cccc(c3)CNCCN(CCNC2)CCNCc2cccc(c2)-c2cccc(c2)CNCC1`, the CC50 in data set [8] came to 0.1 µM; in data set [14] it was 1.3 µM. Moreover, the selectivity ratio in data set [9] and in data set [12] was 2 each time. Also, the values for the Ratio in data set [1] and in data set [4] were 109% and 33%, respectively. Moreover, in data set [10], the K entry was “inactive”. The outcome in data set [11], in data set [20] and in data set [3] was Active. In addition, the K in data set [13] came out at 3.9 ×10⁶ /M; in data set [19], 7.5 ×10³ /M. Moreover, the ΔTm is 17.5 °C in data set [2], 16.6 °C in data set [6] and 15.9 °C in data set [7]. Moreover, the Selectivity ratio in data set [15] was above 2; in data set [5] it was 91%; in data set [21], above 2. For the same compound, the figures for the Kapp in data set [16] and in data set [17] were 6 ×10⁶ /M and 4.7 ×10⁴ /M, respectively. Besides, the CC50 at 72 h in data set [18] stood at 2.6 µM.

On to `c1cc2c3cccc(c3c1)CNCCOCCNCc1cccc3c(cccc13)CNCCOCCNC2`, for which the values for the CC50 in [8] and in [14] were 1.3 µM and 0.16 µM, respectively. Also, the figures for the Ratio in data set [1] and in [4] were 118% and 42%, respectively. In addition, the K was 7.5 ×10⁴ /M in data set [10] and 4.7 ×10⁷ /M in data set [13]. For the same compound, the ΔTm in [2] is 10.4 °C; in [6], 8.9 °C; in data set [7], 8.5 °C. Also, the results for the Selectivity ratio in data set [15], in data set [5] and in [21] were above 2, 82% and above 1, respectively. Moreover, the Kapp in data set [16] was found to be 8.7 ×10⁶ /M; in [17], 5.9 ×10⁵ /M. In addition, the CC50 at 72 h in data set [18] is 0.04 µM. Further, the outcome in data set [3] was Active.

Take `c1cc2ccc3cc2cc1CNCCNCCNCc1ccc2ccc(cc2c1)CNCCNCCNC3`: the Ratio came out at 37% in data set [1] and 46% in data set [4]. The results for the ΔTm in data set [2] and in [6] were 4.2 °C and below 5 °C, respectively. Moreover, the result in data set [3] was Active.

Turning to `C[n+]1ccc(-c2c3nc(c(-c4cc[n+](C)cc4)c4ccc([nH]4)c(-c4cc[n+](C)cc4)c4ccc([nH]4)c(-c4cc[n+](C)cc4)c4nc2C=C4)C=C3)cc1`, the Ratio in data set [1] was 8%; in data set [4] it was 86%. In addition, the ΔTm came out at 22.5 °C in data set [2], 12 °C in data set [6] and 8 °C in [7]. The Selectivity ratio in data set [5] was 35%.

In the case of `c1cc2nc3ccc4cc3cc2cc1CNCCOCCNCc1ccc2nc3ccc(cc3cc2c1)CNCCOCCNC4`, the CC50 is 4.8 µM in data set [8] and 2.8 µM in data set [14]. The Ratio in [1] was found to be 27%; in data set [4], 54%. In addition, the K in data set [10] is 3.1 ×10⁴ /M; in data set [13] it was 1.9 ×10⁹ /M. Moreover, the ΔTm is 23 °C in data set [2], 20.4 °C in data set [6] and 17.1 °C in [7]. The results for the Selectivity ratio in data set [15], in [5] and in data set [21] were above 4, 84% and above 1, respectively. Also, the figures for the Kapp in data set [16] and in data set [17] were 1.4 ×10⁷ /M and 3.8 ×10⁵ /M, respectively. In addition, the CC50 at 72 h in data set [18] amounted to 1 µM.
